# Reference: patent US20130210852A1, “METHODS FOR TREATING INFECTION” (priority 2010, published 2013)
# Tests used:
# [1] = system: EAEC strain O42 adherence to HEp-2 cells; assay: HEp-2 cell attachment assay (microscopy after Wright-Giemsa staining); assay type: cell-based, human
# [2] = system: EAEC adherence with dialyzed conditioned medium of HEp-2 cells; assay: Effect of dialyzed HEp-2 supernatants on EAEC adherence; assay type: cell-based, human; parameters: dose or concentration left out as unconfirmed; details: HEp-2 treated 24 h, supernatant dialyzed; chambers with or without HEp-2 cells, 3 h
# Experimental: HEp-2 cells were cultured in T-175 flasks as described above. […] After 24 h, the medium was collected, loaded into regenerated cellulose dialysis tubing (cutoff, 6 to 8 kDa; Spectra/Por, Rancho Domiguez, Calif.), and dialyzed against 4 liters of PBS changed four times. Each dialysis step lasted at least 6 h and was carried out at 4° C. Dialyzed supernatants were either used immediately in adherence assays or stored at −20° C. until use.
# The effect of supernatants on EAEC adherence was determined by mixing EAEC with the dialyzed media from the different antibiotic (or control) treatment groups and adding the bacteria to HEp-2 cells cultured in chambered slides or to chambered slides with no HEp-2 cells. Adherence was visualized microscopically as described above.
# [3] = system: HEp-2 cells; assay: Cytokine arrays of HEp-2 supernatants (Panomics); details: antibiotic 64 μg/ml, 24 h
# [4] = system: C difficile; assay: Susceptibility testing of C difficile isolates (rifaximin agar dilution, rifampin E strips)
smiles,measurement,setting,value
CO[C@H]1/C=C/O[C@@]2(C)Oc3c(C)c(O)c4c(O)c(c(/C=N/N5CCN(C)CC5)c(O)c4c3C2=O)NC(=O)/C(C)=C\C=C\[C@H](C)[C@H](O)[C@@H](C)[C@@H](O)[C@@H](C)[C@H](OC(C)=O)[C@@H]1C [Rifampin],EAEC O42 adherence to HEp-2 cells (microscopy),[1],adhered in the traditional stacked-brick formation
same,EAEC adherence after mixing with dialyzed supernatants of antibiotic-treated HEp-2 cells,[2],adhered to chambers independently of the presence of HEp-2 cells
same,cytokine profile of HEp-2 supernatants,[3],"had the same profile, except that MIP5 was not detected"
same,MIC50 against C difficile,[4]; 359 isolates,<2 ng/mL
same,MIC90 against C difficile,[4]; 359 isolates,4000 ng/mL
same,MIC50 against C difficile,"[4]; 359 isolates, listed as rifampin",< 2 ng/mL
same,"Isolates resistant to rifampin (n = 28), (%)","[4]; genotype A +, B +, BT +, tcdC-del +",(7) %
same,"Isolates resistant to rifampin (n = 28), (%)","[4]; genotype A +, B +, BT +, tcdC-del −",(14) %
same,"Isolates resistant to rifampin (n = 28), (%)","[4]; genotype A +, B +, BT −, tcdC-del +",(18) %
same,"Isolates resistant to rifampin (n = 28), (%)","[4]; genotype A +, B +, BT −, tcdC-del −",(46) %
same,"Isolates resistant to rifampin (n = 28), (%)","[4]; genotype A −, B −, BT −, tcdC-del −",(14) %
